One assay concerns the target human TRPA1 (Homo sapiens (Human), UniProt O75762). Put plainly: 45Calcium uptake assay, AITC induced, human TRPA1 expressing CHO cells. The class given is cell-based. The settings on record: AITC 30 micromolar, read-out: IC50 values hTRPA1. In outline:
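CHO cells expressing human TRPA1 preincubated 10 min with compound (0.5% DMSO), then 30 µM AITC plus 5 µCi/ml 45Ca2+ for 3 min at 25 °C. Lysate radioactivity counted by scintillation. IC50 by nonlinear regression of % maximal uptake without antagonist.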

A further assay deals with human TRPV1 (Homo sapiens (Human), UniProt Q8NER1). The assay can be described thus: Radiometric calcium selectivity assay, CHO cells expressing human TRPV1 (capsaicin). The following applies: read-out: IC50 values hTRPV1. It is filed as cell-based.
The next assay deals with human TRPV3 (Homo sapiens (Human), UniProt Q8NET8). The assay can be described thus: Radiometric calcium selectivity assay, CHO cells expressing human TRPV3 (2-aminoethoxydiphenyl borate). The settings on record: read-out: IC50 values hTRPV3. It is filed as cell-based.
Another assay addresses human TRPV4 (Homo sapiens (Human), UniProt Q9HBA0). Put plainly: Radiometric calcium selectivity assay, CHO cells expressing human TRPV4 (4α-phorbol 12,13-didecanoate). It is filed as cell-based. The following applies: read-out: IC50 values hTRPV4.
For a further assay, the target named is human TRPM8 (Homo sapiens (Human), UniProt Q7Z2W7). Put plainly: Radiometric calcium selectivity assay, CHO cells expressing human TRPM8 (icilin). It is filed as cell-based. The following applies: read-out: IC50 values hTRPM8.
Assay [1] has as its system ovalbumin sensitized Brown Norway rats. Put plainly: Ovalbumin asthma model in Brown Norway rats (Example 5). The class given is in vivo, rat. The settings on record: i.t. 1 hour before ovalbumin challenge, BAL 48 hours; dose dependent. How it is done: Male BN rats were sensitized subcutaneously (s.c.) on day 0, 14 and 21 with 0.5 ml solution containing 20 μg/ml ovalbumin (Ova) and 40 mg/ml aluminum hydroxide. Simultaneously the animals were injected intraperitoneally (i.p.) with 0.25 ml of B. pertussis vaccine/rat containing 4×10^8 heat killed bacilli/ml. The rats were challenged with 1% aerosolized ovalbumin on Day 28 following sensitization.
Test compounds were triturated and volume was made up with Normal Saline (0.9% NaCl). Animals were administered TRPA1 antagonists (Compound 52, Compound 73, Compound 84, Compound 90 and Compound 92) intra-tracheally (i.t.) 1 hour and fluticasone 24 hours and 1 hour before ovalbumin challenge. Animals were sacrificed 48 hours after ovalbumin challenge.
BAL was performed at approximately 48 hours after ovalbumin challenge and the pooled BAL was used to determined total number of cells and for cell differential study (according to Example 2).
The total number of eosinophils in each BAL sample and % inhibition of eosinophils were calculated according to Example 3
The data was statistically evaluated by ANOVA followed by Dunnett's multiple comparisons test.

Assay [2] relates to LPS exposed Brown Norway rats. Put plainly: Aerosolized LPS induced airway inflammation in Brown Norway rats. It is filed as in vivo, rat. The following applies: i.t. 4 hours before LPS; Compound 52 1000 μg/animal, Compound 90 2000 μg/animal; BAL 12 hours. How it is done: Male Brown Norway rats were exposed to aerosolized Lipopolysaccharide (LPS) (100 μg/ml) for 40 minutes at 1.8 bar pressure using a nebulizer (Hudson Respiratory Care Incorporated), phosphate buffered saline (PBS) control animals were exposed to hyrdroxylamine hydrochloride in PBS.
Test compounds were triturated and volume was made up with either distilled water or normal saline (0.9% NaCl). Animals were administered Compound 52 and Compound 90 intra-treacheally 4 hours before LPS aerosolized exposure. Animals were sacrificed 12 hours after aerosolized exposure. The control group of animals received only 2 mg Lactose/100 μl distilled water/animal intratracheally or normal saline 100 μl/animal intratracheally.
Broncho alveolar lavage (BAL) was performed at approximately 12 hours after aerosolized exposure. Animals were euthanized with an overdose of urethane, trachea was exposed and BAL was performed 5 times using 2 ml PBS. All aspirates of BAL were pooled and total number of cells determined using a hemocytometer. BALFwas centrifuged. […]
The total number of neutrophils in each BAL sample was calculated using the formula:
[formula] Percent inhibition of neutrophils was calculated using the following formula:
[formula] Data was statistically evaluated by ANOVA followed by Dunnett's multiple comparisons test. […]

The structures appear in SMILES notation.

Broadly, the IC50 is the point on the concentration scale where inhibition reaches its midpoint.

Sequence of human TRPM8 (Q7Z2W7 whole entry): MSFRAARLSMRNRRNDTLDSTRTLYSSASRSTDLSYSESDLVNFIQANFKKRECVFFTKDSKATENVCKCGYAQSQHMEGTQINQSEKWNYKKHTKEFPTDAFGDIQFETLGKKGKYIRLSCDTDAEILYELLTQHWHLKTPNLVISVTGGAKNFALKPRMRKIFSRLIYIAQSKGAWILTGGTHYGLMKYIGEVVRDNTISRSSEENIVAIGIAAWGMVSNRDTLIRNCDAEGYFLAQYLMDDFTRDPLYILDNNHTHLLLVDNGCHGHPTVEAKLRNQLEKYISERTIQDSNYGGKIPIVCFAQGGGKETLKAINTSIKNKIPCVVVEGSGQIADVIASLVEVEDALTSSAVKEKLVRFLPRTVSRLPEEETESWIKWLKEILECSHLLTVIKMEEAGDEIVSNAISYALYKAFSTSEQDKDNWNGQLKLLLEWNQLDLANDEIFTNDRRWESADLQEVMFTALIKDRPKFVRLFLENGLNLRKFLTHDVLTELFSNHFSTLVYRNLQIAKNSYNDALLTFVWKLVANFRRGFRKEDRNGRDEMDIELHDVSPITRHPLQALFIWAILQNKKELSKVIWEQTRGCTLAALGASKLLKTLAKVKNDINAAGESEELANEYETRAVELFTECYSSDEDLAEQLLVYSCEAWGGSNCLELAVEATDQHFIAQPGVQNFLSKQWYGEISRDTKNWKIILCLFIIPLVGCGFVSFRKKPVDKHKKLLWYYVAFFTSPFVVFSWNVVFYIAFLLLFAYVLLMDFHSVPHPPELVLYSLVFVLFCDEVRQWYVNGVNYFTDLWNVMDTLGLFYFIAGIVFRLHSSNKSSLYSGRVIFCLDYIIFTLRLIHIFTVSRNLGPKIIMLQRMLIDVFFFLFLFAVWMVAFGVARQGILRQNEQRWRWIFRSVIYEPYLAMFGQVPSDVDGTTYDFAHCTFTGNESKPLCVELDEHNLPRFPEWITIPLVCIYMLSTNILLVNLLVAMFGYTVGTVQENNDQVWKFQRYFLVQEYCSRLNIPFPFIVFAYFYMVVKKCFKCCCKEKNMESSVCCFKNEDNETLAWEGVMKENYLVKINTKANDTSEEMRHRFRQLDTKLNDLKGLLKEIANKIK
Sequence of human TRPV1 (Q8NER1 whole entry): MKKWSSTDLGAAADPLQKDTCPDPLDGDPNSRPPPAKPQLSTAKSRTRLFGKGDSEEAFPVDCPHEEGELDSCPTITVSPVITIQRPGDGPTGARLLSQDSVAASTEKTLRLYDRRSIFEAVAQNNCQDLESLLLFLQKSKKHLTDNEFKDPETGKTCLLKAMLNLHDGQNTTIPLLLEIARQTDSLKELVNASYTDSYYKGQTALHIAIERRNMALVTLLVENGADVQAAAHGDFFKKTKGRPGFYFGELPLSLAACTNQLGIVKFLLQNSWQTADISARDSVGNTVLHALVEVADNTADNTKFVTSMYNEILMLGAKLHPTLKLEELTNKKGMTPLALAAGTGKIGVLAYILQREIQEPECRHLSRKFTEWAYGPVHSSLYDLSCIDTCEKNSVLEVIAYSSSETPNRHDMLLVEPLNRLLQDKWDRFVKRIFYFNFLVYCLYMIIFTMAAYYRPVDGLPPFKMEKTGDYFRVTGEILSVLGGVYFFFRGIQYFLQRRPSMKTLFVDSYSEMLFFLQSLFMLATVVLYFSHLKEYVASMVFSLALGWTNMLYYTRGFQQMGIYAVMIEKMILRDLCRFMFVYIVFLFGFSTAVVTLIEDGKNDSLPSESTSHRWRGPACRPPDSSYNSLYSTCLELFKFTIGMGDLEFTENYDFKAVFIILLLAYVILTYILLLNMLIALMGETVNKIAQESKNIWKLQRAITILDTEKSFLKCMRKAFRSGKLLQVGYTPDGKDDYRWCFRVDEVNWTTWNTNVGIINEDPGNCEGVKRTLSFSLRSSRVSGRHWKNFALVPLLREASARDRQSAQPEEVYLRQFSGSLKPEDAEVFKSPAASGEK
Sequence of human TRPA1 (O75762 whole entry): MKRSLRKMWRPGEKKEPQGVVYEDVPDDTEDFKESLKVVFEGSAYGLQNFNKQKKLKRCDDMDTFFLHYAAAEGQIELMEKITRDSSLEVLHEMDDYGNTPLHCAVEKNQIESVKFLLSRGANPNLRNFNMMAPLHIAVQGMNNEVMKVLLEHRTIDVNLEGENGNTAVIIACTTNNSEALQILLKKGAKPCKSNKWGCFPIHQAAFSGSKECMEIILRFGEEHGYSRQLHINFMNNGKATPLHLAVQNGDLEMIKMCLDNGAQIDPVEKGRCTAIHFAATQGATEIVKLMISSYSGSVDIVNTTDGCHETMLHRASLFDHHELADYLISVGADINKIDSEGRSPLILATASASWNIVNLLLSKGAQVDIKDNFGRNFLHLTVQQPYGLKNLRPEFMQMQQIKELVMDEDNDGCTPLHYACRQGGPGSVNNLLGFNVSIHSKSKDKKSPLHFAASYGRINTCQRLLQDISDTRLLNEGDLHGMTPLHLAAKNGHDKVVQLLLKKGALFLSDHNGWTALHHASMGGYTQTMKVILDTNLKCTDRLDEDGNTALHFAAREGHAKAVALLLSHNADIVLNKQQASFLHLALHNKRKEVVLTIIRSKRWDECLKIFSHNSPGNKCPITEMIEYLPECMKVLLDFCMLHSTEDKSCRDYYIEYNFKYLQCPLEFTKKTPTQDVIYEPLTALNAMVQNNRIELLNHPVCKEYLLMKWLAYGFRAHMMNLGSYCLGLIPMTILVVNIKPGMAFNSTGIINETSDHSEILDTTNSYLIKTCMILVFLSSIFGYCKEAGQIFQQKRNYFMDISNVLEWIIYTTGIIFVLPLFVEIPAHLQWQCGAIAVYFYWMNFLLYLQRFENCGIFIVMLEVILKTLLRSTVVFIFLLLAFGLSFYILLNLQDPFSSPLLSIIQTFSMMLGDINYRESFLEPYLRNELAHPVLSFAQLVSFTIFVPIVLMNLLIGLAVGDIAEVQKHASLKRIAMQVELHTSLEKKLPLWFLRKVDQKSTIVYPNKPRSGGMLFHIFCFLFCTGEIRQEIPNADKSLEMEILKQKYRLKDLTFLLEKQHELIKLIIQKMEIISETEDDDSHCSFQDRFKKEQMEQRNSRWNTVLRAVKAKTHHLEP
Sequence of human TRPV3 (Q8NET8 whole entry): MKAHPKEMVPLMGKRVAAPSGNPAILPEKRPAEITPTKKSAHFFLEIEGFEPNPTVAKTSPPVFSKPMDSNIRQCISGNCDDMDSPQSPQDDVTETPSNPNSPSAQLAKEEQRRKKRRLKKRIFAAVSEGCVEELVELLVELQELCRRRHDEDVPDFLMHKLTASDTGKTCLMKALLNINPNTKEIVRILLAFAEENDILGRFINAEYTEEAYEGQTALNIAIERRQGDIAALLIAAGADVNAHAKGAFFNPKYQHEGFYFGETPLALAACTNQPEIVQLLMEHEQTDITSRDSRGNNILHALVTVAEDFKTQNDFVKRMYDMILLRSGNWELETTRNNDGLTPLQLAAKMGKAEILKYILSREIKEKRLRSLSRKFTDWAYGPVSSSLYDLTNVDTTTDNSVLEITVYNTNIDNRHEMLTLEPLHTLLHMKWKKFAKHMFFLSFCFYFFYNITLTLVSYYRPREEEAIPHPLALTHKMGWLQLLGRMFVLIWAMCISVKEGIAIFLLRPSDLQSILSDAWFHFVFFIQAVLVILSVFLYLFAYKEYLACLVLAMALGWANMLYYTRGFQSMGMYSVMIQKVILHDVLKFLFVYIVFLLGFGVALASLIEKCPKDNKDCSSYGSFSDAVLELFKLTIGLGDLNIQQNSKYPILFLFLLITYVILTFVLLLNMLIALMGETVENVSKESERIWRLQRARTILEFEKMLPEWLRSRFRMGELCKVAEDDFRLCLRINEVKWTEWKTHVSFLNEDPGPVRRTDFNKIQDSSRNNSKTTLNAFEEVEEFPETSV
Sequence of human TRPV4 (Q9HBA0 whole entry): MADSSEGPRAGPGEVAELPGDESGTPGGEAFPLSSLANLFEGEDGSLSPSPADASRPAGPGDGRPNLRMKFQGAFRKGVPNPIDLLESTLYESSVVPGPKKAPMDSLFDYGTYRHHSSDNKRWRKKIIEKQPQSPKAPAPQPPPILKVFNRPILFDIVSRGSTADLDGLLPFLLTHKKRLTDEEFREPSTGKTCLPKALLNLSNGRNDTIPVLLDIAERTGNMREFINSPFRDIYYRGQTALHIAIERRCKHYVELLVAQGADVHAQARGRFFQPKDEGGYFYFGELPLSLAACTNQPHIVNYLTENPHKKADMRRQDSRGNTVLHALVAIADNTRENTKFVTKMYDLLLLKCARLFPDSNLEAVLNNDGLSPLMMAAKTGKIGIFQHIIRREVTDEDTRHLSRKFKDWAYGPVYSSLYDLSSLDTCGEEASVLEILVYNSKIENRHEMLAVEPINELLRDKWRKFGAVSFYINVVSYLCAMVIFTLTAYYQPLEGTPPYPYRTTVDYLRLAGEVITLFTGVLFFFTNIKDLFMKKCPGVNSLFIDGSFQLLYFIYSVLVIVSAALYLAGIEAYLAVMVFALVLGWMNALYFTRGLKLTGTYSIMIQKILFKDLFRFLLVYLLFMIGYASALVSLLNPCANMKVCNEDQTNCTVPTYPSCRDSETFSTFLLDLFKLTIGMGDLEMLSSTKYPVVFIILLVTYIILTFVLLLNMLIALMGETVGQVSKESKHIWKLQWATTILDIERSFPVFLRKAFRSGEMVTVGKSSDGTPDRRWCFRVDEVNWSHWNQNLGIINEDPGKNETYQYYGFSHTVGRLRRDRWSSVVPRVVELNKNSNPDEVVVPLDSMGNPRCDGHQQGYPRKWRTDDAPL

Turning to `Cc1oc2c(c1CC(=O)Nc1nc(-c3cc(Cl)c(OCC(C)C)c(Cl)c3)cs1)c(=O)n(C)c(=O)n2C` [Compound 75], the IC50 is 3.34 nM on human TRPA1; above 10000 nM at human TRPV1; above 10000 nM on human TRPV3; above 10000 nM at human TRPV4; above 10000 nM at human TRPM8.

Regarding `Cc1oc2c(c1CC(=O)Nc1nc(-c3ccc(C(F)(F)F)c(F)c3F)cs1)c(=O)n(C)c(=O)n2C` [Compound 76], the IC50 on human TRPA1 was 4.02 nM; on human TRPV1 it was 8010 nM; at human TRPV3, 2500 nM; on human TRPV4 it was 8920 nM; at human TRPM8 it was above 10000 nM.

As for `Cn1c(=O)c2c(CC(=O)Nc3nc(-c4ccc(F)c(C(F)(F)F)c4F)cs3)nsc2n(C)c1=O` [Compound 77], the half-inhibitory concentration (IC50) at human TRPA1 was 5.6 nM; at human TRPV1, above 10000 nM; on human TRPV3, 1770 nM; at human TRPV4 it was 553 nM; on human TRPM8, above 10000 nM.

Regarding `Cn1c(=O)c2c(CC(=O)Nc3nc(-c4ccc(C(F)(F)F)cc4F)cs3)nsc2n(C)c1=O` [Compound 78], the IC50 on human TRPA1 was 10.6 nM; on human TRPV1, above 10000 nM; at human TRPV3, above 1000 nM; on human TRPV4, 153 nM; on human TRPM8, above 10000 nM.

In the case of `Cn1c(=O)c2c(CC(=O)Nc3nc(-c4cccc(C(F)(F)F)c4F)cs3)nsc2n(C)c1=O` [Compound 79], the half-inhibitory concentration (IC50) at human TRPA1 was 5.29 nM; on human TRPV1, above 10000 nM; on human TRPV3, above 1000 nM; on human TRPV4 it was 826 nM; on human TRPM8, above 10000 nM.

As for `Cn1c(=O)c2c(CC(=O)Nc3nc(-c4ccc(OC(F)(F)F)c(Cl)c4)cs3)nsc2n(C)c1=O` [Compound 80], the IC50 at human TRPA1 was 6.28 nM; at human TRPV1 it was above 10000 nM; at human TRPV3 it was above 10000 nM; on human TRPV4, 279 nM; on human TRPM8, above 10000 nM.

For the compound `Cn1c(=O)c2c(CC(=O)Nc3nc(-c4ccc(C(F)(F)F)c(F)c4)cs3)nsc2n(C)c1=O` [Compound 81], the IC50 at human TRPA1 was 6.74 nM; at human TRPV1 it was above 10000 nM; at human TRPV3, above 1000 nM; at human TRPV4, 162 nM; on human TRPM8 it was above 10000 nM.

On to `Cn1c(=O)c2c(CC(=O)Nc3nc(-c4ccc(OC(F)(F)F)c(F)c4)cs3)nsc2n(C)c1=O` [Compound 82], for which the IC50 at human TRPA1 was 8.04 nM; at human TRPV1, above 10000 nM; at human TRPV3, above 1000 nM; at human TRPV4, 172 nM; at human TRPM8, above 10000 nM.

As to `Cn1c(=O)c2c(CC(=O)Nc3nc(-c4cc(F)cc(C(F)(F)F)c4)cs3)nsc2n(C)c1=O` [Compound 83], the half-maximal inhibitory concentration (IC50) at human TRPA1 is 4.4 nM; on human TRPV1, above 10000 nM; at human TRPV3, above 1000 nM; on human TRPV4, 236 nM; at human TRPM8, above 10000 nM.

Turning to `Cn1c(=O)c2c(CC(=O)Nc3nc(-c4ccc(C(F)(F)F)c(F)c4)cs3)ccnc2n(C)c1=O` [Compound 85], the concentration for half-maximal inhibition (IC50) was 8.92 nM on human TRPA1; above 10000 nM at human TRPV1; above 1000 nM on human TRPV3; 620 nM at human TRPV4; above 10000 nM at human TRPM8.

As for `Cn1c(=O)c2c(CC(=O)Nc3nc(-c4cc(F)c(OCC(F)(F)F)c(F)c4)cs3)ccnc2n(C)c1=O` [Compound 86], the IC50 at human TRPA1 was 6.91 nM; on human TRPV1, above 10000 nM; on human TRPV3 it was above 10000 nM; on human TRPV4 it was above 1000 nM; at human TRPM8 it was above 10000 nM.

With `Cn1c(=O)c2c(CC(=O)Nc3nc(-c4ccc(F)c(C(F)(F)F)c4F)cs3)ccnc2n(C)c1=O` [Compound 87], the IC50 at human TRPA1 was 19.3 nM; at human TRPV1, above 10000 nM; at human TRPV3 it was above 10000 nM; at human TRPV4, 2010 nM; at human TRPM8 it was above 10000 nM.

Consider `Cn1c(=O)c2c(CC(=O)Nc3nc(-c4ccc(OC(F)(F)F)c(F)c4)cs3)ccnc2n(C)c1=O` [Compound 88], for which the IC50 is 11.4 nM at human TRPA1; above 10000 nM on human TRPV1; above 1000 nM at human TRPV3; 158 nM at human TRPV4; above 10000 nM on human TRPM8.

On to `COCCCOc1cccc(C2NC(=S)NC3=C2C(=O)c2ccccc23)c1` (centres unmarked) [Compound 90], for which the IC50 on human TRPV1, on human TRPV3, on human TRPV4 and at human TRPM8 was above 10000 nM throughout. Moreover, the pulmonary eosinophilia result in assay [1] was “significant inhibition”. Besides, the “neutrophils in BALF” value in assay [2] is listed as “significant inhibition”. Besides, in assay [2], the “total leukocytes in BALF” value was “significant inhibition”.

In the case of `Cn1c(=O)c2c(CC(=O)Nc3nc(-c4ccc(F)c(C(F)(F)F)c4F)cs3)onc2n(C)c1=O` [Compound 92], the IC50 was above 10000 nM on human TRPV1, above 1000 nM at human TRPV3, above 1000 nM at human TRPV4 and above 10000 nM on human TRPM8. In assay [1], the pulmonary eosinophilia result was “significant inhibition”.

The values above are taken from patent publication US9186360B2, “Treatment of respiratory disorders using TRPA1 antagonists” (GLENMARK PHARMACEUTICALS S.A., priority 2011, dated 2015).
